# Where a SMILES comes first, the peptide text is derived from it.
# Test system: TNF-α production in RAW264.7 cells
# Experiment: LPS-stimulated TNF-α production (ELISA)
# Format: cell-based, mouse
# Method: Figure 11 The inhibitory effects of OIR3, IR3, DIR3 and GS on LPS-stimulated TNF-α production in RAW264.7 cells. The levels of TNF-α in the […] were determined by ELISA using a commercial kit for mouse TNF-α. Data shown are the mean ± SD of three independent experiments.
# LPS-activated inflammatory responses are always accompanied by the production of inflammatory cytokines, such as tumor necrosis factor-alpha (TNF-α). Briefly, 2 × 10^5 cells/well RAW264.7 cells were plated in 96-well plates and stimulated with LPS (100 ng/mL) in the absence or presence of the peptides (1–32 μM) for 18 h at 37 °C. The levels of TNF-α were determined using an ELISA kit (Boster, Wuhan, China) in accordance with the manufacturer’s instructions. TNF-α was measured by determining the absorbance at 540 nm.
compound,measurement,value
CC[C@H](C)[C@@H]1NC(=O)[C@H](CCCNC(=N)N)NC(=O)[C@H]([C@@H](C)CC)NC(=O)[C@@H]2CCCN2C(=O)[C@H](CCCNC(=N)N)NC(=O)[C@H]([C@@H](C)CC)NC(=O)[C@H](CCCNC(=N)N)NC(=O)[C@H]([C@@H](C)CC)NC(=O)[C@H](CCCNC(=N)N)NC(=O)[C@H]([C@@H](C)CC)NC(=O)[C@@H]2CCCN2C(=O)[C@H](CCCNC(=N)N)NC(=O)[C@H]([C@@H](C)CC)NC(=O)[C@H](CCCNC(=N)N)NC1=O [OIR3] (cyclo(IRIRIRPIRIRIRP)),inhibition of LPS-stimulated TNF-α expression,more strongly inhibited

# Source: article PMC6928678, “Simplified Head-to-Tail Cyclic Polypeptides as Biomaterial-Associated Antimicrobials with Endotoxin Neutralizing and Anti-Inflammatory Capabilities” (International Journal of Molecular Sciences, 2019)
